Here are results for one molecule from ChEMBL document CHEMBL5380795, “Design, Synthesis, and Bioactivity Investigation of Cyclic Lipopeptide Antibiotics Containing Eight to Nine Amino Acids” (J Med Chem, 2023).

pKd: −log10 of the molar value. ≈ marks a conversion by molar mass, not a printed value. Some results are limits rather than exact numbers.

Series [1] relates to Staphylococcus aureus. Put plainly: Antibacterial activity against Staphylococcus aureus ATCC 29213 assessed as inhibition of bacterial growth incubated for 18 to 24 hrs by broth microdilution method. The format is functional. The settings on record: time 18-24 hrs. (In general: Dilution methods test growth across graded concentrations, often in twofold steps.)
Series [2] relates to Staphylococcus epidermidis. As to the kind of experiment: Antibacterial activity against methicillin resistant Staphylococcus epidermidis clinical isolate 19-6 assessed as inhibition of bacterial growth incubated for 18 to 24 hrs by broth microdilution method. Type of series: functional. The settings on record: time 18-24 hrs.
Series [3] deals with Pseudomonas aeruginosa. Put plainly: Antibacterial activity against Pseudomonas aeruginosa clinical isolate 19-1 assessed as inhibition of bacterial growth incubated for 18 to 24 hrs by broth microdilution method. Type of series: functional. The settings on record: time 18-24 hrs.
Series [4] concerns Pseudomonas aeruginosa. As to the kind of experiment: Antibacterial activity against carbapenem resistant Pseudomonas aeruginosa clinical isolate 19-3 assessed as inhibition of bacterial growth incubated for 18 to 24 hrs by broth microdilution method. The format is functional. The settings on record: time 18-24 hrs.
Series [5] relates to Pseudomonas aeruginosa. Put plainly: Antibacterial activity against Pseudomonas aeruginosa ATCC 27853 assessed as inhibition of bacterial growth incubated for 18 to 24 hrs by broth microdilution method. The format is functional. Conditions: time 18-24 hrs.
Series [6] in a line: Clearance in overnight fasted Sprague-Dawley rat at 4 mg/kg, ip measured for 24 hrs by LC-MS/MS analysis. The format is ADME, organism-based. Conditions: in vivo.
Series [7] can be described thus: AUC (0 to infinity) in overnight fasted Sprague-Dawley rat at 4 mg/kg, ip measured for 24 hrs by LC-MS/MS analysis. Type of series: ADME, organism-based. Also noted: dose 4 mg/kg, time 24 hrs, route ip. Conditions: in vivo.
Series [8] concerns Lipopolysaccharide (LPS). As to the kind of experiment: Binding affinity to LIP-1 sensor chip immobilized Escherichia coli LPS assessed as dissociation constant measured for 600 secs by SPR analysis. On the technique in general: In SPR one partner is held on a chip, and binding of the other changes the refractive index at the surface.
For series [9], the system named is Escherichia coli. As to the kind of experiment: Potentiation of rifampicin induced antibacterial activity in Escherichia coli ATCC 25922 assessed as rifampicin MIC at 0.015 ug/ml incubated for 18 to 24 hrs by broth microdilution method (reference value: 2 ug/ml). The format is functional. The settings on record: dose 0.015 µg/ml, time 18-24 hrs.
Series [10] relates to Escherichia coli. Put plainly: Potentiation of rifampicin induced antibacterial activity in Escherichia coli ATCC 25922 assessed as rifampicin MIC at 0.06 ug/ml incubated for 18 to 24 hrs by broth microdilution method (reference value: 2 ug/ml). The format is functional. Conditions: dose 0.06 µg/ml, time 18-24 hrs.
In series [11] the test system is Escherichia coli. Put plainly: Potentiation of rifampicin induced antibacterial activity in Escherichia coli ATCC 25922 assessed as rifampicin MIC at 0.125 ug/ml incubated for 18 to 24 hrs by broth microdilution method (reference value: 2 ug/ml). Type of series: functional. The settings on record: dose 0.125 µg/ml, time 18-24 hrs.
The test system of series [12] is Escherichia coli. As to the kind of experiment: Potentiation of rifampicin induced antibacterial activity in Escherichia coli ATCC 25922 assessed as rifampicin MIC at 0.25 ug/ml incubated for 18 to 24 hrs by broth microdilution method (reference value: 2 ug/ml). Type of series: functional. Conditions: dose 0.25 µg/ml, time 18-24 hrs.
Series [13] concerns Escherichia coli. Put plainly: Potentiation of rifampicin induced antibacterial activity in Escherichia coli ATCC 25922 assessed as rifampicin MIC at 1 ug/ml incubated for 18 to 24 hrs by broth microdilution method (reference value: 2 ug/ml). The format is functional. The settings on record: dose 1 µg/ml, time 18-24 hrs.

Broadly, the MIC is the lowest concentration found to suppress growth. As usually defined, the CL/F is the apparent clearance, not corrected for the fraction that reaches the circulation. The AUC(0-inf) is the area under the concentration-time curve extrapolated to infinity. Low values mean less exposure, high ones more exposure. What is called pKd is −log10 of the Kd, conventionally taken in molar units. As for `CCCCCCC[C@@H](O)CC(=O)N[C@H](CCN)C(=O)N[C@H]1CCNC(=O)[C@H]([C@@H](C)O)NC(=O)[C@H](CCN)NC(=O)[C@H](CCN)NC(=O)[C@H]([C@@H](C)O)NC(=O)[C@@H](Cc2ccccc2)NC(=O)[C@H](CCN)NC1=O`, the MIC in [1] is above 64 µg/mL; in [2], above 64 µg/mL; in [3] it was 0.5 µg/mL (≈ 0.49 µM); in [4], 0.5 µg/mL (≈ 0.49 µM); in [5], 0.25 µg/mL (≈ 0.245 µM); in series [9], 0.125 µg/mL. The MIC in series [10], in [11], in series [12] and in series [13] was at most 0.06 µg/mL in each case. The molecule also had an apparent clearance CL/F in [6] of 3.8 mL/min/kg. The same molecule had an AUC(0-inf) in series [7] of 17600 ng·h/mL. Moreover, the pKd in series [8] is 6.32.
